Source: patent US7439245B2, “Compounds” (Glaxo Group Limited, priority 2003, dated 2008)

Target: T1, human cloned 5-HT6 receptors (Homo sapiens, UniProt P50406)
T1 construct: expressed in transfected cells
Experiment: 5-HT6 receptor affinity (procedures outlined in WO98/27081)
Format: binding
Details: read-out: pKi values at human cloned 5-HT6 receptors (converted)
Excerpt: Compounds can be tested following the procedures outlined in WO98/27081.

T1 sequence (P50406 whole entry): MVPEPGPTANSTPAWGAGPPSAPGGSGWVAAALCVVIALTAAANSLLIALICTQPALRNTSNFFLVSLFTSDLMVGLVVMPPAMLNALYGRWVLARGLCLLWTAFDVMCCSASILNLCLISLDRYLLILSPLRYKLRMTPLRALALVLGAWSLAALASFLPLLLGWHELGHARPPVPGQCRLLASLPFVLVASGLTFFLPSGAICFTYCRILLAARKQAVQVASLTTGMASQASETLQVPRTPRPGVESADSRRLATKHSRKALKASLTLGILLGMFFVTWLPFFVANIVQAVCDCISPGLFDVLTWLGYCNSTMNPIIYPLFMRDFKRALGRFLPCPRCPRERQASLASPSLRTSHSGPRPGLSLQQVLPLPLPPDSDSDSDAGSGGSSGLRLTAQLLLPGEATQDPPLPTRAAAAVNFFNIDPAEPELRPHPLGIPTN

| SMILES | Ki |
| --- | --- |
| O=S(=O)(c1ccccc1)c1cccc(N2CCNCC2)c1 [Example E1, 1-(3-Phenylsulfonyl-phenyl)piperazine] | < 10 nM |
| O=S(=O)(c1ccccc1)c1cccc(N2CCNCC2)c1Cl [Example E2, 1-(3-Phenylsulfonyl-2-chlorophenyl)piperazine] | < 10 nM |
